Measured values taken from patent US20050238628A1, “Methods for treating cancer” (priority 2004, published 2005).
Entries after “also recorded” stand apart in the source; their conditions may differ.

Columns and labels:
[1] = system: Ba/F3 cells expressing the GyrB/Flt3 construct; assay: Growth of Ba/F3 cells expressing GyrB/Flt3 in the presence of the CID coumermycin; format: cell-based; conditions: FIG. 1
Excerpt: (§1) An MSCV-based vector was constructed that encodes a fusion protein containing a myristylation domain linked to DNA gyrase B, which in turn is linked to the intracellular portion of murine flt-3, which in turn is linked to an HA epitope tag. […] Ba/F3 cells expressing the GyrB/Flt3 construct can be distinguished from Ba/F3 cells expressing EpoR/Abl using intracellular flow cytometry with an antibody directed against the HA tag.

[2] = system: Ba/F3 cells expressing EpoR/Abl mixed with Ba/F3 cells expressing GyrB/Flt3; assay: Mixed culture of EpoR/Abl and GyrB/Flt3 Ba/F3 cells, HA tag flow cytometry; format: cell-based; conditions: coumermycin 1 nM, absence of IL-3, 4 days, flow cytometry for HA tag; FIG. 2
Protocol: A cDNA containing the EpoRIAbl construct was used to transduce Ba/F3 cells by retroviral gene transfer. After two days, IL-3 containing medium was washed away, and cells were cultured in the presence of erythropoietin (3 units/ml), without IL-3, to generate a polyclonal pool of erythropoietin dependent cells.
as §1
After 4 days, the frequency of cells expressing the HA tag was determined by flow cytometry.

Reh cells (EpoR) = assay: STAT5 phosphorylation in Reh cells upon addition of erythropoietin; format: cell-based; conditions: human TEL/AML1+ ALL line
Excerpt: A number of nonerythroid cell lines have been examined for EpoR expression.

Ba/F3EpoRAbl cells = conditions: nude mice, tail vein injection of cells followed by injections of erythropoietin; cited from earlier work

Substance	growth of Ba/F3 cells in the presence of the CID [1]	erythropoietin responsive (HA-negative) cells in mixed culture [2]	STAT5 phosphorylation (Reh cells (EpoR))	death of mice injected with Ba/F3EpoRAbl cells (Ba/F3EpoRAbl cells)
coumermycin	capable of growth; also recorded: capable of group	sharp reduction in erythropoietin responsive (HA-negative) cells		
erythropoietin			exhibit STAT5 phosphorylation	induce death with a timecourse that is dependent on the concentration of exogenously administered Epo
